Converted amounts (≈) assume the structure as drawn.
Assays:
CD13 = experiment: FACS analysis of stem/progenitor marker CD13 after treatment; format: cell-based, human; settings: HuH-7 and Hep3B cells
Excerpt: (§3) For flow cytometry, FACSCanto™ II (BD Biosciences, San Jose, Calif.) was used. Cancer cells were washed with phosphate-buffered saline, and then enzymatically dissociated with 0.05% trypsin-EDTA (Invitrogen). The trypsinized cells were suspended in FACS buffer, and analyzed on FACSCanto™ II using FACSDiva software (BD Biosciences). For the analysis of hepatic stem/progenitor markers, primary antibodies against Ep-CAM (#324206; Biolegend, San Diego, Calif.), CD13 (#555394; BD Pharmingen), CD44 (#555479; BD Pharmingen), CD90 (#328110; BioLegend), CD133 (#130-080-801; Miltenyi Biotec, Gladbach, Germany), Mouse IgG1 κtype (#555749; BioLegend), and Mouse IgG2b κtype (#400314; BioLegend) were used. All antibodies were conjugated directly with phycoerythrin (PE). The immunostaining and analysis were performed according to the instructions from the manufacturer.

SK-Hep1 cells = experiment: MTS cell growth assay, SK-Hep1; format: cell-based; settings: Homo sapiens, 48 h incubation
Procedure: (§1) Human HCC cell lines Hep3B, PLC/PRF/5, and SK-Hep1 were obtained from the American Type Culture Collection (Manassas, Va., USA). Other human HCC cell lines HuH-7, HuH-1, HepG2, HLE, and HLF were obtained from the Human Science Research Resources Bank (Osaka, Japan). HuH-7, HepG2, Hep3B, and SK-Hep1 cells were cultured in log growth phase in 1640 RPMI (Invitrogen, Carlsbad, Calif.) and HuH-1, HLE, HLF, and PLC/PRF/5, cells were cultured in Dulbecco's modified Eagle medium (Invitrogen) with 5% fetal bovine serum (Sigma, St. Louis, Mo.) for HLF cells or 10% FBS for the remaining cell lines. All media were supplemented with 1% PenStrep (Sigma). […]
(§2) HCC cell lines were seeded in 96-well plates at 3×10^3 cells per well in a total volume of 50 μl of culture media. […] Cell viability was monitored using CellTiter 96 AQueous One Solution Cell Proliferation Assay Kit (Promega) and half-maximal inhibitory concentration (IC50) values were calculated. The mean values and standard deviations of IC50 were calculated in triplicate for each cell line. […] The remaining viable cells were counted using a Cytorecon (GE Healthcare) after staining with trypan blue to exclude the dead cells. Each analysis was performed in triplicate, and the data expressed as means±standard deviations.

HuH-7 = experiment: MTS cell growth assay, HuH-7; format: cell-based; settings: Homo sapiens, 48 h incubation
Procedure: (§4) Human HCC cell lines Hep3B, PLC/PRF/5, and SK-Hep1 were obtained from the American Type Culture Collection (Manassas, Va., USA). Other human HCC cell lines HuH-7, HuH-1, HepG2, HLE, and HLF were obtained from the Human Science Research Resources Bank (Osaka, Japan). HuH-7, HepG2, Hep3B, and SK-Hep1 cells were cultured in log growth phase in 1640 RPMI (Invitrogen, Carlsbad, Calif.) and HuH-1, HLE, HLF, and PLC/PRF/5, cells were cultured in Dulbecco's modified Eagle medium (Invitrogen) with 5% fetal bovine serum (Sigma, St. Louis, Mo.) for HLF cells or 10% FBS for the remaining cell lines. All media were supplemented with 1% PenStrep (Sigma). […] All cell lines were cultivated in a humidified incubator at 37° C. in 5% carbon dioxide and harvested with 0.05% trypsin-0.03% EDTA (Invitrogen).
(§5) HCC cell lines were seeded in 96-well plates at 3×10^3 cells per well in a total volume of 50 μl of culture media. […] Cell viability was monitored using CellTiter 96 AQueous One Solution Cell Proliferation Assay Kit (Promega) and half-maximal inhibitory concentration (IC50) values were calculated. The mean values and standard deviations of IC50 were calculated in triplicate for each cell line. […] Each analysis was performed in triplicate, and the data expressed as means±standard deviations.

HLE = experiment: MTS cell growth assay, HLE; format: cell-based; settings: Homo sapiens, 48 h incubation
Procedure: as §1, §2

[1] = test system: Ep-CAM^high cell lines (HuH-7, HepG2, Hep3B and HuH-1); experiment: Sphere formation assay; format: cell-based, human; settings: 48 h treatment (VB4-845 1-10 pM, 5-FU 1-5 μg/ml), 7 days of culture
Procedure: Briefly, 1×10^6 cells of HuH-7, HepG2, Hep3B and HuH-1 were seeded in four 10 cm dishes. […] After 48h, the medium was changed to drug-free medium and incubated for 24 h. After cell viability was confirmed by trypan blue exclusion, the remaining viable cells were collected and plated separately at 1×10^2 cells in low attachment plates (96-well Ultra Low Cluster Plate; Costar, Corning, N.Y.), and incubated in serum-free Dulbecco's modified Eagle medium/F12 medium (Invitrogen). Sphere formation was observed using AxioObserver (Carl Zeiss, Oberkochen, Germany), and the images were acquired digitally using AxioVision software (Carl Zeiss).

PLC/PRF/5 = experiment: MTS cell growth assay, PLC/PRF/5; format: cell-based; settings: Homo sapiens, 48 h incubation
Procedure: as §1, §2

HuH-1 = experiment: MTS cell growth assay, HuH-1; format: cell-based; settings: Homo sapiens, 48 h incubation
Procedure: as §4, §5

HLF = experiment: MTS cell growth assay, HLF; format: cell-based; settings: Homo sapiens, 48 h incubation
Procedure: as §1, §2

[2] = test system: HuH-7 subcutaneous xenografts; experiment: Subcutaneous xenograft model; format: in vivo, NOD.CB17-PRkdcScid/J mice; settings: three weeks after initiation; VB4-845 30 μg/kg i.v., 5-FU 30 mg/kg i.p., three times a week for 2 weeks
Procedure: Twenty five-week-old female NOD.CB17-PRkdcScid/J mice purchased from Charles River Laboratory Inc. (Kanagawa, Japan) were injected with 1×10^6 HuH-7 cells mixed with the same amount of Matrigel (BD Biosciences) subcutaneously into the both flanks of mice under anesthesia. […] Tumor size was measured using calipers three times a week and tumor volumes calculated using the following equation: volume=(length)×(width)2×0.5. The mice were sacrificed three weeks after the initiation of treatment.

Ep-CAM^low cell lines = experiment: Cell proliferation assay (viable cell count, trypan blue), Ep-CAM^low cell lines; format: cell-based, human; settings: VB4-845 10 pM and 5-FU 1-5 μg/ml, 48 h; p>0.05
Procedure: (A) Expression of Ep-CAM was analyzed by flow cytometry in 8 HCC cell lines. […] Cell growth was measured in MTS assays. […] Columns, alive cells (%); vertical bars, standard deviation.
as §2, with “line. To investigate cell viability, HCC cell lines were seeded in 6-well plates at 1×10^5 cells per well in a total volume of 2 ml of culture media.” for “line.”

CD133 = experiment: FACS analysis of stem/progenitor marker CD133 after treatment; format: cell-based, human; settings: HuH-7, HepG2, and Hep3B cells, compared with the control
Excerpt: as §3

Hep3B = experiment: MTS cell growth assay, Hep3B; format: cell-based; settings: Homo sapiens, 48 h incubation
Procedure: as §4, §5

HepG2 = experiment: MTS cell growth assay, HepG2; format: cell-based; settings: Homo sapiens, 48 h incubation
Procedure: as §4, §5

O=c1[nH]cc(F)c(=O)[nH]1 [5-FU, 5-fluorouracil]
positive rate of CD13 (CD13): significantly increased | IC50 (SK-Hep1 cells): 4.3 ± 0.5 µg/mL (≈ 33.1 µM) | IC50 (HuH-7): 0.8 ± 0.1 µg/mL (≈ 6.15 µM) | IC50 (HLE): 16.5 ± 6.6 µg/mL (≈ 127 µM) | sphere formation by surviving cells [1]: formed spheres | IC50 (PLC/PRF/5): 55.6 ± 11.2 µg/mL (≈ 427 µM) | IC50 (HuH-1): 11.3 ± 6.3 µg/mL (≈ 86.9 µM) | IC50 (HLF): 33.5 ± 17.2 µg/mL (≈ 258 µM) | volume of tumors [2]: 555±147 mm^3 | cell proliferation (alive cells) (Ep-CAM^low cell lines): suppressed cell proliferation to the same extent as the combination of VB4-845 and 5-FU | positive rate of CD133 (CD133): significantly increased | IC50 (Hep3B): 5.9 ± 1.8 µg/mL (≈ 45.4 µM) | IC50 (HepG2): 39.5 ± 9.6 µg/mL (≈ 304 µM)

From patent US20160060352A1, “COMPOSITIONS AND METHODS FOR DETECTION AND TREATMENT OF HEPA[…]” (VIVENTIA BIO INC., priority 2013, published 2016)
